Measurements reported in patent publication US20080311126A1, “Antisense Oligonucleotides Directed to Ribonucleotide Reducatase R2 and Uses Thereof in Combination Therapies for the Treatment of Cancer” (Genesense Technologies, Inc, priority 2004, published 2008).
Oligonucleotides are written 5' to 3', each unit as a sugar letter and its base; * is a phosphorothioate linkage, no mark a phosphodiester; rarer units and linkages stand in square brackets, end groups in braces. Plain capitals give the bases only. d = 2'-deoxy (DNA)

Columns and labels:
Assay in all cases: Relative colony forming efficiency (Example 17, Table 13)
Format in all cases: cell-based, human
[1] = test system: MDA PaCa-2 pancreatic cell carcinoma; conditions: MIA PaCa-2 pancreatic cell carcinoma; averages of 2-8 determinations
Experimental: (§1) Colony forming efficiency was determined using standard protocols. […] The test oligonucleotides were added to cell cultures in the presence of 2.5 μg of DOTMA/DOPE (Lipofectin; Life Technologies, Inc.) for four hours. The oligonucleotide was tested at 0.2 μM unless otherwise indicated. Controls were the cultures treated with lipofectin but without the oligonucleotide. […] Surviving cells were visualized by methylene blue staining, and colonies were scored. In some experiments cell aliquots were removed from the culture and viability was determined using the trypan blue exclusion test. Results were analyzed as percent of surviving cells compared to control cells. To test the antisense effects of many of these sequences as phosphorthioate deoxyribonucleotides, they were examined in relative colony forming experiments conducted as described in Example 16 with a series of human tumour cell lines. The results (shown as % inhibition of colony forming ability) obtained with cancer cells derived from the bladder, breast, lung, colon, pancreas, prostate, liver and cervix, are shown in Table 13. The specific cell lines employed are as follows: […]

[2] = test system: HepG2 hepatocellular carcinoma; conditions: averages of 2-8 determinations
Experimental: as §1

[3] = test system: PC-3 prostrate cell adenocarcinoma; conditions: averages of 2-8 determinations
Experimental: as §1

[4] = test system: T24 bladder cell carcinoma; conditions: averages of 2-8 determinations
Experimental: as §1

[5] = test system: A549 lung cell carcinoma; conditions: averages of 2-8 determinations
Experimental: as §1

[6] = test system: HCT116 colon cell carcinoma; conditions: averages of 2-8 determinations
Experimental: as §1

Sequence	Reduced relative colony forming efficiency, MIA PaCa-2 (% inhibition of colony forming ability) [1] [%]	Reduced relative colony forming efficiency, HepG2 (% inhibition of colony forming ability) [2] [%]	Reduced relative colony forming efficiency, PC-3 (% inhibition of colony forming ability) [3] [%]	Reduced relative colony forming efficiency, T24 (% inhibition of colony forming ability) [4] [%]	Reduced relative colony forming efficiency, A549 (% inhibition of colony forming ability) [5] [%]	Reduced relative colony forming efficiency, HCT116 (% inhibition of colony forming ability) [6] [%]
CGGCTCATCCTCCACGC (antisense dC*dG*dG*dC*dT*dC*dA*dT*dC*dC*dT*dC*dC*dA*dC*dG*dC) [AS-II-391-17]	26.35	60.64	93.25			
GAAGCCATAGAAACAGCGGG (antisense dG*dA*dA*dG*dC*dC*dA*dT*dA*dG*dA*dA*dA*dC*dA*dG*dC*dG*dG*dG) [AS-II-667-20]	85.26	88.23	91.8	70.48	70.3	
GACGGCTGGGACAGGGTGCA (antisense dG*dA*dC*dG*dG*dC*dT*dG*dG*dG*dA*dC*dA*dG*dG*dG*dT*dG*dC*dA) [AS-II-134-20]			77.51			
GCATCCAAGGTAAAAGAATT (antisense dG*dC*dA*dT*dC*dC*dA*dA*dG*dG*dT*dA*dA*dA*dA*dG*dA*dA*dT*dT) [AS-II-1335-20]	78.78	72.98	90.04	59.95	78.59	67.87
GCGGCGGGGGTTTTCTCTCA (antisense dG*dC*dG*dG*dC*dG*dG*dG*dG*dG*dT*dT*dT*dT*dC*dT*dC*dT*dC*dA) [AS-II-412-20]	55.25	26.23	73.96	22.2	43.78	27.98
TCAGCATCCAAGGTAAAAGA (antisense dT*dC*dA*dG*dC*dA*dT*dC*dC*dA*dA*dG*dG*dT*dA*dA*dA*dA*dG*dA) [AS-II-1338-20]	79.17	80.41	93.75	63.16	63.93	74.73
TCCTCGCGGTCTTGCTGGCC (antisense dT*dC*dC*dT*dC*dG*dC*dG*dG*dT*dC*dT*dT*dG*dC*dT*dG*dG*dC*dC) [AS-II-323-20]	97.55	96.39	79.76		91.24	55.8
TGGGACAGGGTGCACGGGCG (antisense dT*dG*dG*dG*dA*dC*dA*dG*dG*dG*dT*dG*dC*dA*dC*dG*dG*dG*dC*dG) [AS-II-130-20]	82.11	94.28	74.66		86.48	
TTCTGGCAAAAGGTGATACT (antisense dT*dT*dC*dT*dG*dG*dC*dA*dA*dA*dA*dG*dG*dT*dG*dA*dT*dA*dC*dT) [AS-II-1538-20]	50.62	96.84	84.71	67.29	90.34	51.28
TTGTGTACCAGGTGTTTGAA (antisense dT*dT*dG*dT*dG*dT*dA*dC*dC*dA*dG*dG*dT*dG*dT*dT*dT*dG*dA*dA) [AS-II-1023-20]	42.82		87.63	58.26	34.52	
